2 molecules from US20220339135A1, “COMPOSITIONS AND METHODS FOR MODULATING AN INFLAMMATORY RESPONSE” (Enzychem Lifesciences Corporation, priority 2019, published 2022) can be followed below.

Test [1] relates to NET formation of neutrophil, bone marrow-derived cells. In words: NETosis of PAK-introduced bone marrow-derived cells. As to conditions: PAK/PLAG vs PAK. The test is classed as cell-based. As to the method: 2 hours after PAK infection, bone marrow-derived cells were harvested and detected extracellular DNA-elastase complex by using ELISA and visualized by using confocal microscopy (×400) or scanning electron microscope (SEM) (×8000). […] cells were washed with PBS and mounted in DAPI-containing fluorescence microscopy mounting medium (Invitrogen). Samples were analyzed with a laser scanning confocal microscope (Carl Zeiss, Oberkochen, Germany).

Test [2] concerns citrullinated histone H3 in dHL-60 cells. In words: Histone H3 citrullination, western blot. The test is classed as cell-based, human. The conditions noted are these: time-dependent. As for the experimental part:
dHL-60 cells were lysed on ice for 30 minutes in RIPA buffer composed of 50 mM Tris-HCl (pH 7.4), 150 mM NaCl, 2 mM EDTA, 1% NP-40, 0.5% sodium deoxycholate, 0.1% SDS, 1 mM phenylmethylsulfonyl fluoride (PMSF), 10 mM sodium fluoride, 2 mM sodium pyrophosphate, 10 mM β-glycerophosphate, 10 mM sodium orthovanadate. The lysates were centrifuged at 13,000 rpm for 20 minutes at 4° C. and protein concentrations were determined using the Bradford assay (Bio-Rad Laboratories). Denatured samples were mixed with a 5×SDS-PAGE loading buffer and heated to 100° C. for 15 min. The samples were separated on the 10% of SDS-PAGE gel and transferred to polyvinylidene difluoride (PVDF) membranes (Merck Millipore Corporation, MA, USA). Membranes were blocked with 5% non-fat milk in PBS (10 mM Tris-HCl, pH7.5, 150 mM NaCl) for 1 h and probed with primary antibodies against histone H3 (citrulline R2+R8+R17) from abcam (USA) and β-actin from cell signaling (USA) for overnight at 4° C. The blots were washed and incubated with appropriate secondary antibodies and visualized using Pierce™ ECL Western Blotting Substrate (Thermo Scientific).

Test [3] deals with chemo-radiation and scratch induced oral mucositis. In words: Chemo-radiation and scratch induced oral mucositis. The test is classed as in vivo, mice. As to conditions: PLAG 250 mg/kg oral, n=7. As for the experimental part: For radiation therapy, mice received 1 Gy of gamma radiation with mice whole body. Mice were intraperitoneally administered 5-FU (Sigma Aldrich) at 50 mg/kg. For facilitating the risk of infection, mice were anesthetized with 2,2,2-tribromoethanol (150 mg/kg, Sigma Aldrich) by intraperitoneal injection, and then tongue was scratched 0.2 cm wound on a third of side at using the tip of an 18-gauge needle with an equal force and depth. PLAG (Enzychem Lifesciences) was stored in −80° C. refrigerator and was administered orally once with 250 mg/kg. Formulations were aggressively mixed to be cloudiness and were injected within 10 minutes.
The tongue was scratched 0.2 cm wound on a third of side at using the tip of an 18-gauge needle with an equal force and depth on Day 0, 7, 10, and 16. Mice were received 1 Gy of gamma radiation on Day 2 and 5-FU was administered intraperitoneally in a dose of 50 mg/kg on Days 4. For the group receiving PLAG, 250 mg/kg of PLAG was administered orally once daily. To check the oral mucositis, mice were anesthetized with 2,2,2-tribromoethanol (150 mg/kg, Sigma Aldrich) by intraperitoneal injection on Day 7, 10, 14, 18. Each group contained seven mice.

Test [4] deals with TLR4/MD2 on the surface of Raw264.7 cells. In words: LPS-induced TLR4/MD2 internalization, confocal microscopy. As to conditions: LPS/PLH compared to LPS treated cells. The test is classed as cell-based. As for the experimental part:
Raw264.7 cells were divided into two groups: 1) LPS treated group and 2) LPS/PLAG treated group. For LPS treated group, cells were stimulated with LPS (100 ng/ml) for 0, 15, 30, 45, 60, 75, 90, 105, 120 minutes. For LPS/PLAG treatment, cells were pre-incubated with PLAG (100 μg/ml) for 1 hour and then stimulated with LPS (100 ng/ml) for 0, 15, 30, 45, 60, 75, 90, 105, 120 minutes. To detect TLR4/MD2 on the membrane surface, cells were fixed with 2% paraformaldehyde (Sigma-Aldrich) and were blocked with PBS containing 1% BSA (Gibco, Waltham, Mass., USA). They were incubated with rabbit anti-TLR4/MD2 antibody (Thermo) and Alexa488 conjugated anti-rabbit IgG (Invitrogen). For confocal microscopy analysis, cells were washed with PBS and mounted in DAPI-containing fluorescence microscopy mounting medium (Invitrogen). Samples were analyzed with a laser scanning confocal microscope (Carl Zeiss, Oberkochen, Germany).
Raw264.7 cells were divided into two groups: 1) LPS treated group and 2) LPS/PLAG treated group. […] These were analyzed by confocal microscopy. […]
To detect TLR4/MD2 on the membrane surface, cells were fixed with 2% paraformaldehyde (Sigma-Aldrich) and were blocked with PBS containing 1% BSA (Gibco, Waltham, Mass., USA). […] For confocal microscopy analysis, cells were washed with PBS and mounted in DAPI-containing fluorescence microscopy mounting medium (Invitrogen). […]

Molecules are shown by their SMILES.

As to `CCCCC/C=C\C/C=C\CCCCCCCC(=O)OC(COC(C)=O)COC(=O)CCCCCCCCCCCCCCC` (racemic) [PLAG, 1-palmitoyl-2-linoleoyl-3-acetylglycerol], the “NET formation of neutrophil” value in test [1] is reported as “accelerated”. Besides, the “histone H3 citrullination” value in test [2] was “induced”. In test [3], the “survival rate after 18 days” value turned out to be 85%.

`CCCCC/C=C\C/C=C\CCCCCCCC(=O)OC(CO)COC(=O)CCCCCCCCCCCCCCC` (stereo not shown) [PLH, palmitic linoleic hydroxyl glycerol, reference compound]: the “effect on TLR4/MD2 internalization and return to the surface” value in test [4] is “had no effect”.
